Like-named read-outs stand apart in the source and are kept apart here.

The target in one data set is cdk4 (Homo sapiens, UniProt P11802). Kind of data set: In vitro inhibition of cdk4 using a scintillant proximity assay (CDK4 SPA, Ex. C1). Type of data set: biochemical. The protocol: In Vitro Inhibition of cdk4 using a Scintillant Proximity Assay
The scintillant proximity assay (SPA) is in general described in U.S. Pat. No. 4,568,649 (Amersham Pharmacia Biotech). In the present cdk4 SPA kinase reaction assay, a kinase substrate consisting of a fragment of the restinoblastoma protein (pRb) tagged with […] (GST), is incubated with the aforementioned protein in the presence of (^33P) radiolabeled ATP. (^33P) phosporylation of the substrate is subsequently measured as light energy emitted using glutathione-coated SPA beads (Amersham Pharmacia Biotech) by trapping and quantifying the binding of the GST tagged and radiolabeled restinoblastoma protein.
The CDK4 SPA kinase reaction is performed at room temperature for 30 minutes in a 96-well microtiter plate. For each of the tested compounds a full dose response —10^−5M to 3.10^−9M—has been performed. Flavopiridol was used as reference compound. The 100 μl reaction volume contains 50 mM Hepes, 10 mM NaF, 10 mM MgCl2, 1 mM Na3VO4 pH 7.5, 1.5 μg CDK4-cell lysate/well, 0.2 μM unlabeled ATP, 1.7 μg/well GST-pRb, 1.7 nM AT^33P and 1 μl of a DMSO solution. The reaction is stopped by diluting the reaction mixture ½ with 0.1 mM Na2EDTA, 0.1 mM non-labeled ATP, 0.05% Triton-X-100 and 10 mg/ml glutathion coated beads in PBS. The microtiterplates are centrifuges at 900 rpm for 10 minutes and the amount of phosphorylated (^33P) pRb is determined by counting (1 min/well) in a microtiterplate scintillation counter.

In data set [1] the target is T1, AKT3 (Homo sapiens, UniProt Q9Y243). In words: In vitro inhibition of AKT3 using a filter assay (AKT3 pep., Ex. C3). The data set is classed as biochemical. Here is the method: In Vitro Inhibition of AKT3 using a Filter Assay
T1 sequence (Q9Y243 whole entry, the tested form may be a part): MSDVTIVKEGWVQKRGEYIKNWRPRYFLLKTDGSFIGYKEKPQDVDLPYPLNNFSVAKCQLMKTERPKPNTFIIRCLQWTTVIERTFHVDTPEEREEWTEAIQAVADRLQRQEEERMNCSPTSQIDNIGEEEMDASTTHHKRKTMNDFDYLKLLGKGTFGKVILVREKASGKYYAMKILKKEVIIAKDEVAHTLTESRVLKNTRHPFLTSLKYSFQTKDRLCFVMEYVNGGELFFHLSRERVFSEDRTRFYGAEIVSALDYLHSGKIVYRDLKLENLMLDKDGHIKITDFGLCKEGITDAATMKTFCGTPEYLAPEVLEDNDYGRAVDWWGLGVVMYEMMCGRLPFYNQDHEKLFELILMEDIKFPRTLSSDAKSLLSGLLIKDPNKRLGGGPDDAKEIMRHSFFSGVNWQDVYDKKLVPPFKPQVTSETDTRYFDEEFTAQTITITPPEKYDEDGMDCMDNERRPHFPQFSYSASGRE
In the present AKT3 filter assay, a kinase substrate consisting of a fragment of histone H2B, is incubated with the aforementioned protein in the presence of (^33P) radiolabeled ATP. The (^33P)phosporylated substrate binds to a phosphocellulose cation exchange filter, that can easily be removed from the incubation mixture and counted using a microplate scintillation counter.
AKT3 filter assays were performed at 25° C. for 3 hrs in the presence of 25 mM Hepes, pH 7.0, containing 15 mM MgCl2, 1 mM DTT Each assay was performed in a 100 μl reaction volume containing 111 nM AKT3 (diluted in 25 mM Hepes, pH 7.0, containing 15 mM MgCl2, 1 mM DTT) and the 2.5 μM Histone H2B and 2 nM ATP-P^32. The reaction was terminated by addition of 100 μl 75 mM H3PO4, 90 μl of the assay mixture was filtered through Phosphocellulose cation exchange paper. After five times washing with […] H3PO4, the filterpaper was counting in a microtiterplate scintillation counter.

The subject of the next data set is A2780 cell. Kind of data set: Cytotox/survival of A2780 cell after 3 days. The data set is classed as cell-based. The following applies: Homo sapiens, read-out: Cytotox/survival of A2780 cell after 3 days - pIC50 values (converted). The protocol: In an alternative assay, the growth inhibitory effect of the compounds was tested on the ovarian carcinoma cell line A2780 using art known cytotoxicity assays such as LIVE/DEAD (Molecular Probes) or MTT.

A further data set concerns the target T2, CDC25B (Homo sapiens, UniProt P30305).
T2 sequence (P30305 1-580): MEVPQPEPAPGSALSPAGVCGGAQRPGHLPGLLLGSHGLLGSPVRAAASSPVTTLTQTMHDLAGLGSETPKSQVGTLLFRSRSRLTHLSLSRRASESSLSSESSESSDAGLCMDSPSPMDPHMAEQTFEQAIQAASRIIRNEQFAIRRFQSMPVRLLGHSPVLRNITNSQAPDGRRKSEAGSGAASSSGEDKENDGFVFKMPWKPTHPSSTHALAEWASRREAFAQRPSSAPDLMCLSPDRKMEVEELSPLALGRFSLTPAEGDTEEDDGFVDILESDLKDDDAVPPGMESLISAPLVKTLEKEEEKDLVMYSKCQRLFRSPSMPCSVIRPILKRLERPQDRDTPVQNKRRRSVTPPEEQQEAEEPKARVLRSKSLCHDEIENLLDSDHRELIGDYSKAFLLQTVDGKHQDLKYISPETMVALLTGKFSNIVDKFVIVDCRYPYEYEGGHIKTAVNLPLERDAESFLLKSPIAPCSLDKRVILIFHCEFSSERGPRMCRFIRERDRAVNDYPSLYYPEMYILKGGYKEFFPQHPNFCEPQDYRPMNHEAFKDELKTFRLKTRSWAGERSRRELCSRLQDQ
In words: In vitro inhibition of CDC25B using the fluorogenic substrate 3-OMFP (CDC25B WT, Ex. C5). The data set is classed as biochemical. Here is the method: In Vitro Inhibition of CDC25B using the Fluorogenic Substrate 3-OMFP
CDC25B phosphatase activity is assessed using the fluorogenic substrate 3-O-methyl-flurorescein-phosphate (3-OMFP). The phosphatase-reaction is performed for 1 hour at room temperature in a black microtiter plate in a volume of 50 μl. The reaction mixture contains 4 μg/mlCDC25B, 15 μM (3-OMFP), 15 mM Tris, 50 mM NaCl, 1 mM DTT, 1 mM Na2EDTA at pH 8.0 and 0.1% DMSO solution at 10^−5 M and the hits are tested in the same conditions in a full dose/response from 10^−5, 3.10^−6, 10^−6 and 3.10^−7 M. The enzymatic activity is determined by measuring the fluorescent signal at 485 nm (ex.) and 538 (em.).

For data set [2], the target named is T1, AKT3. In words: Cellular inhibition of AKT3 using an ELISA (AKT cel, Ex. C6). The data set is classed as cell-based. Details: endogenous in cells; host or cells: MDA-MB 231. The protocol:
Cellular Inhibition of AKT3 using an ELISA
The human breast adenocarcinoma cell line (MDA-MB 231) was used in an phosphospecific antibody cell ELISA (PACE) to assess the inhibitory effect of the compounds on AKT3 mediated phosphorylation of mitogen-activated protein kinase (MAPK). In the experiments the MDA-MB 231 cells were serum starved for 24 hours (5% CO2; 37° C.). Subsequently, the cells are incubated at room temperature for 2 hours with 20 μM (in serum free medium) of the phosphatidylinositol 3-kinase inhibitor Ly294002 (Alexis, San Diego, Calif.) prior to the incubation for 30 minutes with the compounds at a final concentration ranging from 1 nM to 3 μM. After fixation (with 4.5% formaldehyde) for 20 minutes and washing with PBS (0.1M) the cells were successively incubated with for 5 minutes with 0.1% Triton X-100 in PBS, for 20 minutes with 0.6% H2O2 and 1 hour with a 2% BSA solution as blocking buffer. […] The OD (490–655 nm) reflected the amount of phosphorylated MAPK and the pIC50 of the compounds was based on their effect with respect to blanco (0.1% DMSO) or an internal reference compound treatment.
In general terms: ELISA stands for enzyme-linked immunosorbent assay.

[3] abbreviates: GST-pRb substrate, 33P-ATP, room temperature 30 minutes, read-out: CDK4 SPA (Ex. C1): pIC50 values (converted).
Setting [4] is: histone H2B substrate, filter assay, 25° C. 3 hrs, read-out: AKT3 pep. (Ex. C3): pIC50 values (converted).
[5] abbreviates: 72 h, A2780 ovarian carcinoma cell line, 3 days.
The mark [6] stands for this setting: 3-OMFP substrate, 1 hour room temperature, read-out: CDC25B WT (Ex. C5): pIC50 values (converted).
[7] abbreviates: MDA-MB 231 cells, phosphorylated MAPK ELISA, 30 minutes with compound, read-out: AKT cel (Ex. C6): pIC50 values (converted).

Sequence of cdk4 (P11802 whole entry, the tested form may be a part): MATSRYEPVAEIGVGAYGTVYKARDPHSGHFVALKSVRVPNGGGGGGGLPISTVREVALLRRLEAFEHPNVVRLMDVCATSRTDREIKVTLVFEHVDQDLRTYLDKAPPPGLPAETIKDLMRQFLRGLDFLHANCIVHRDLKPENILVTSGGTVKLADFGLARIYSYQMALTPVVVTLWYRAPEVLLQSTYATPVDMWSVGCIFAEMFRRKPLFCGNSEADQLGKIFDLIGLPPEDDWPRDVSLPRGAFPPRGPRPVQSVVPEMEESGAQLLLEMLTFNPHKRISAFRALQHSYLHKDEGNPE
Sequence of cdk4 (P24385 whole entry partner, the tested form may be a part): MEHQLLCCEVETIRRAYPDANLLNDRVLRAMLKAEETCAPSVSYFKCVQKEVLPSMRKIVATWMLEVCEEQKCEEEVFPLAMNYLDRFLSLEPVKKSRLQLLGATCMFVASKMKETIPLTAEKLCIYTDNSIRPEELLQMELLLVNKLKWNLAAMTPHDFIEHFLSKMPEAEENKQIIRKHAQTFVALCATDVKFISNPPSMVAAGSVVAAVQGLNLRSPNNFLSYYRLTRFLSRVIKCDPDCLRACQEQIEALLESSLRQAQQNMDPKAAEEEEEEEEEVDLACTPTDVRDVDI

The melting point is the temperature, or range, at which the solid turns liquid. `Cn1c(=O)nc2n(C3CCCC3)nc(-c3ccc(-c4ccc(CN(CCO)CCO)cc4)o3)nc-2c1=O` [Compound 134] displayed a melting point of 242 °C. The IC50 at cdk4 (setting [3]) is 111 nM. The IC50 on AKT3 [1] (setting [4]) is 59.8 nM. In the data set with A2780 cell (setting [5]), the IC50 was 52.7 nM. Also, the IC50 on CDC25B (setting [6]) was 12.9 nM. Moreover, the IC50 on AKT3 [2] (setting [7]) was 39.2 nM.

With `Cn1c(=O)nc2n(C3CCCC3)nc(-c3ccc(-c4ccc(CN5CCN(CCOCCO)CC5)cc4)o3)nc-2c1=O` [Compound 121], the melting point was > 250 °C. Also, the IC50 at cdk4 (setting [3]) is 161 nM. In addition, on AKT3 [1] (setting [4]), the IC50 was 57.3 nM. In addition, in the data set on A2780 cell (setting [5]), the IC50 was 137 nM. The IC50 on CDC25B (setting [6]) is 12 nM. On AKT3 [2] (setting [7]), the IC50 was 406 nM.

Compound `Cn1c(=O)nc2n(C3CCCC3)nc(-c3ccc(-c4ccc(CN5CCCC5)cc4)o3)nc-2c1=O` [Compound 131] yielded a melting point of 218 °C. Besides, the IC50 on cdk4 (setting [3]) was 51.9 nM. Moreover, the IC50 on AKT3 [1] (setting [4]) was 91.4 nM. Further, the IC50 in the data set with A2780 cell (setting [5]) was 61.7 nM. At CDC25B (setting [6]), the IC50 was 18.6 nM. Besides, the IC50 at AKT3 [2] (setting [7]) was 71.8 nM.

For the compound `COCCN1CCN(Cc2ccc(-c3ccc(-c4nc5c(=O)n(C)c(=O)nc-5n(C5CCCC5)n4)o3)cc2)CC1` [Compound 133], the melting point came out at 186 °C. For the same compound, the IC50 on cdk4 (setting [3]) was 112 nM. At AKT3 [1] (setting [4]), the IC50 is 61 nM. The IC50 with A2780 cell (setting [5]) is 119 nM. In addition, on CDC25B (setting [6]), the IC50 was 11.6 nM. Further, the IC50 on AKT3 [2] (setting [7]) was 67.8 nM.

With `Cn1c(=O)nc2n(C3CCCC3)nc(-c3ccc(-c4ccc(CNCc5cccnc5)cc4)o3)nc-2c1=O` [Compound 122], the melting point was determined as 205 °C. On cdk4 (setting [3]), the IC50 is 91 nM. Moreover, at AKT3 [1] (setting [4]), the IC50 was 30.9 nM. Moreover, the IC50 in the data set with A2780 cell (setting [5]) was 70.5 nM. The IC50 at CDC25B (setting [6]) is 14 nM. The IC50 at AKT3 [2] (setting [7]) was 123 nM.

On to `Cn1c(=O)nc2n(C3CCCC3)nc(-c3ccc(-c4ccc(CNC(CO)(CO)CO)cc4)o3)nc-2c1=O` [Compound 126], for which the melting point was determined as 241 °C. Besides, the IC50 at cdk4 (setting [3]) was 78.3 nM. Besides, on AKT3 [1] (setting [4]), the IC50 was 80.2 nM. Also, the IC50 in the data set on A2780 cell (setting [5]) is 1110 nM. In addition, on CDC25B (setting [6]), the IC50 was 93.8 nM. In addition, the IC50 at AKT3 [2] (setting [7]) is 272 nM.

With `Cn1c(=O)nc2n(C3CCCC3)nc(-c3ccc(-c4ccc(CO)cc4)o3)nc-2c1=O` [Compound 31], the melting point was 182 °C. In addition, the IC50 at cdk4 (setting [3]) was 137 nM. Besides, the IC50 on AKT3 [1] (setting [4]) was 44.3 nM. The IC50 with A2780 cell (setting [5]) is 74 nM. Moreover, at CDC25B (setting [6]), the IC50 was 13.8 nM. For the same compound, the IC50 on AKT3 [2] (setting [7]) is 277 nM.

Consider `Cn1c(=O)nc2n(C3CCCC3)nc(-c3ccc(-c4ccc(CN5CCN(S(N)(=O)=O)CC5)cc4)o3)nc-2c1=O` [Compound 112], for which the melting point is > 250 °C. On cdk4 (setting [3]), the IC50 is 117 nM. Also, the IC50 at AKT3 [1] (setting [4]) is 63.7 nM. Moreover, the IC50 in the data set on A2780 cell (setting [5]) was 142 nM. Also, the IC50 on CDC25B (setting [6]) is 19.8 nM. In addition, the IC50 on AKT3 [2] (setting [7]) was 202 nM.

In turn, `CC(C)n1nc(-c2ccc(-c3ccc(CN(C)CCO)cc3)o2)nc2c(=O)n(C)c(=O)nc1-2` [Compound 87] showed a melting point of 229 °C. Moreover, at cdk4 (setting [3]), the IC50 is 80.7 nM. Also, the IC50 on AKT3 [1] (setting [4]) is 72.9 nM. For the same compound, the IC50 with A2780 cell (setting [5]) is 61.4 nM. Moreover, the IC50 on CDC25B (setting [6]) was 24.3 nM. In addition, on AKT3 [2] (setting [7]), the IC50 is 35.2 nM.

The compound `CN1CCN(C(=O)COc2ccc(-c3ccc(-c4nc5c(=O)n(C)c(=O)nc-5n(C5CCCC5)n4)o3)cc2)CC1` [Compound 119] registered a melting point of 252 °C. Further, the IC50 at cdk4 (setting [3]) is 129 nM. At AKT3 [1] (setting [4]), the IC50 was 54 nM. Also, the IC50 in the data set with A2780 cell (setting [5]) is 48.1 nM. In addition, on CDC25B (setting [6]), the IC50 is 17.6 nM. In addition, the IC50 on AKT3 [2] (setting [7]) was 470 nM.

In turn, `Cn1c(=O)nc2n(C3CCCC3)nc(-c3ccc(-c4ccc(OCCN5CCOCC5)cc4)o3)nc-2c1=O` [Compound 117] registered a melting point of 173 °C. At cdk4, the IC50 was 286 nM. The same compound showed an IC50 against AKT3 [1] of 49.4 nM. Besides, the IC50 in the data set on A2780 cell (A2780, 72 h) was 178 nM. This compound had an IC50 against CDC25B of 18.9 nM. At AKT3 [2], this compound showed an IC50 of 813 nM.

The compound `COC1CCN(Cc2ccc(-c3ccc(-c4nc5c(=O)n(C)c(=O)nc-5n(C5CCCC5)n4)o3)cc2)CC1` [Compound 132] had a melting point of 220 °C. In addition, on cdk4 (setting [3]), the IC50 was 78.5 nM. The IC50 on AKT3 [1] (setting [4]) was 47 nM. The IC50 in the data set on A2780 cell (setting [5]) was 87.7 nM. Further, on CDC25B (setting [6]), the IC50 is 20.2 nM. Moreover, the IC50 on AKT3 [2] (setting [7]) was 58.3 nM.
